Test results: patent US20160046592A1, “PHARMACEUTICAL COMPOSITION FOR THE TREATMENT OF DIABETES” (Ajinomoto Co., Inc., priority 2013, published 2016)
Structures can show the parent of a compound that is named as a salt.

biological target: T1, PPAR-α (Homo sapiens, UniProt Q07869); experiment: Measurement of PPAR-α activity (GAL4 luciferase reporter assay in CV-1 cells); assay type: cell-based; conditions: 100(A/B): A = maximum PPAR-α activity of test compound at 3, 10, 30 and 100 μM, B = activity of the compound of WO/2011/058154 at 100 μM, 18 to 20 hours
T1 construct: expressed in transfected cells; host or cells: CV-1 (African green monkey kidney)
T1 sequence (Q07869 167-468): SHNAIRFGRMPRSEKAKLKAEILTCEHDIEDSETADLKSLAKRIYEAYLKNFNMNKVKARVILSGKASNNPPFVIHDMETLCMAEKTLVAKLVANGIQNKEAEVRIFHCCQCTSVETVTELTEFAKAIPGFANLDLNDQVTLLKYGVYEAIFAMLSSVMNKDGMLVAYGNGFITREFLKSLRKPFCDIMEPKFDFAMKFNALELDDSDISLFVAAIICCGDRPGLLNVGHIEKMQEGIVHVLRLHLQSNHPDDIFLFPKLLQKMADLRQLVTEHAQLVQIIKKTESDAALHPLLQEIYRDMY
How it was run: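 CV-1 cells were co-transfected with a UAS×5-TK-Luc reporter and a hGR-GAL4-hPPARα (LBD 167-468aa) expression plasmid, then dosed with compound for 18 to 20 h at 37 °C, with Bright-Glo luciferase read-out. Relative fold induction (%) is the maximum activity at 3, 10, 30 or 100 μM divided by the activity of a WO/2011/058154 reference compound at 100 μM.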

Row | Relative fold induction (%) of PPAR α [%] | SMILES
1 | 42 | NC(=O)C1CC[C@@H](C(=O)O)N1C(=O)c1cccc(COc2ccc(-c3cc(F)c(F)c4ccoc34)cc2)c1 (single isomer, unassigned) [Example 76, (2S,5S) or (2S,5R)-5-Carbamoyl-1-[3-[[4-(4,5-difluorobenzofuran-7-yl)phenoxy]methyl]benzoyl]pyrrolidine-2-carboxylic Acid]

same assay, conditions: 100(A/B): A = maximum PPAR-α activity of test compound at 3, 10, 30 and 100 μM, B = activity of the compound of WO/2011/058154 at 100 μM, 18 to 20 hours, read-out: Relative fold induction (%) of PPAR α

Row | SMILES | Emax [%]
2 | CSc1cc(F)c(F)cc1-c1ccc(OCc2cccc(C(=O)N(CCN3CCCC3)CC(=O)O)c2)cc1 [Example 40, 2-[[3-[[4-(4,5-Difluoro-2-methylsulfanyl-phenyl)phenoxy]methyl]benzoyl]-(2-pyrrolidin-1-ylethyl)amino]acetic Acid Trifluoroacetate] | 9.4
3 | CSc1cc(F)c(F)cc1-c1ccc(OCc2cccc(C(=O)N(CC(=O)O)[C@@H](C)C(N)=O)c2)cc1 [Example 22, 2-[[(1S)-2-Amino-1-methyl-2-oxo-ethyl]-[3-[[4-(4,5-difluoro-2-methylsulfanyl-phenyl)phenoxy]methyl]benzoyl]amino]acetic Acid] | 14
4 | O=C(O)[C@@H]1[C@@H](O)CCN1C(=O)c1cccc(COc2ccc(-c3cc(F)c(F)c4ccoc34)cc2)c1 [Example 2, (2S,3S)-1-[3-[[4-(4,5-Difluorobenzofuran-7-yl)phenoxy]methyl]benzoyl]-3-hydroxy-pyrrolidine-2-carboxylic Acid] | 5
5 | COCCN(CC(=O)O)C(=O)c1cccc(COc2ccc(-c3cc(F)c(F)cc3SC)cc2)c1 [Example 6, 2-[[3-[[4-(4,5-Difluoro-2-methylsulfanyl-phenyl)phenoxy]methyl]benzoyl]-(2-methoxyethyl)amino]acetic Acid] | 86
6 | CSc1cc(F)c(F)cc1-c1ccc(OCc2cccc(C(=O)N(CC(=O)O)C3CCNCC3)c2)cc1 [Example 36, 2-[[3-[[4-(4,5-Difluoro-2-methylsulfanyl-phenyl)phenoxy]methyl]benzoyl]-(4-piperidyl)amino]acetic Acid Trifluoroacetate] | 8

Continued, values first:

Row | Emax [%] | SMILES
7 | 14 | CSc1cc(F)c(F)cc1-c1ccc(OCc2cccc(C(=O)N(CCc3noc(C)n3)CC(=O)O)c2)cc1 [Example 60, 2-[[3-[[4-(4,5-Difluoro-2-methylsulfanyl-phenyl)phenoxy]methyl]benzoyl]-[2-(5-methyl-1,2,4-oxadiazol-3-yl)ethyl]amino]acetic Acid]
8 | 20 | CSc1cc(F)c(F)cc1-c1ccc(OCc2cccc(C(=O)N3[C@@H](CO)CC[C@H]3C(=O)O)c2)cc1 [Example 64, (2S,5R)-1-[3-[[4-(4,5-Difluoro-2-methylsulfanyl-phenyl)phenoxy]methyl]benzoyl]-5-(hydroxymethyl)pyrrolidine-2-carboxylic Acid]
9 | 10 | CSc1cc(F)c(F)cc1-c1ccc(OCc2cccc(C(=O)N(CCS(=O)(=O)N(C)C)CC(=O)O)c2)cc1 [Example 59, 2-[[3-[[4-(4,5-Difluoro-2-methylsulfanyl-phenyl)phenoxy]methyl]benzoyl]-[2-(dimethylsulfamoyl)ethyl]amino]acetic Acid]
